Measurements taken from ChEMBL document CHEMBL3044610, “Khayanolides, rearranged phragmalin limonoid antifeedants from Khaya senegalensis” (Tetrahedron, 2001).
Calls of active or inactive are those of the source. No cut-off for these calls is given here.

Experiments:
Type in all cases: functional, organism-based
Spodoptera littoralis [1] = assay: Antifeedant activity against third-instar larva of Spodoptera littoralis fed on compound-treated Chinese cabbage leaf at 500 ppm by leaf-disk method
Spodoptera littoralis [2] = assay: Antifeedant activity against third-instar larva of Spodoptera littoralis fed on compound-treated Chinese cabbage leaf at 300 ppm by leaf-disk method
Spodoptera littoralis [3] = assay: Antifeedant activity against third-instar larva of Spodoptera littoralis fed on compound-treated Chinese cabbage leaf at 1000 ppm by leaf-disk method

| SMILES | Activity (Spodoptera littoralis [1]) | other results |
| --- | --- | --- |
| COC(=O)[C@H](O)[C@H]1[C@@]2(C)C[C@]3(O)[C@H]4[C@@H](O[C@]56CC(=O)O[C@H](c7ccoc7)[C@]5(C)CC[C@H]([C@]13C)[C@]46O)[C@H]2O | Active | – |
| COC(=O)[C@H](O)[C@H]1[C@]2(C)C[C@]3(O)[C@H](C(=O)[C@H]2O)[C@]24O[C@]25CC(=O)O[C@H](c2ccoc2)[C@]5(C)CC[C@@H]4[C@]13C | – | Activity (Spodoptera littoralis [2]): Active |
| COC(=O)[C@H](O)[C@H]1[C@]2(C)C[C@]3(O)[C@@H](C(=O)[C@H]2O)[C@]2(O)C4=CC(=O)O[C@@H](c5ccoc5)[C@]4(C)CC[C@@H]2[C@]13C | – | Activity (Spodoptera littoralis [3]): Active |
| C=C1[C@@H]2CC[C@@]3(C)[C@H](c4ccoc4)OC(=O)C[C@]13O[C@H]1CC(=O)C(C)(C)[C@H](C(OC(C)=O)C(=O)OC)[C@]12C (some centres not stated) | Active | – |
| C=C1[C@@H]2CC[C@@]3(C)[C@H](c4ccoc4)OC(=O)C[C@]13O[C@H]1CC(=O)C(C)(C)[C@H](CC(=O)OC)[C@]12C | Active | – |
| C=C1[C@@H]2CC[C@@]3(C)[C@H](c4ccoc4)OC(=O)C[C@]13O[C@H]1CC(=O)C(C)(C)[C@H](C(O)C(=O)OC)[C@]12C (some centres not stated) | Active | – |
| CC1(C)C(=O)[C@@H]2C[C@@]34O[C@]2(O)[C@]2(COC(=O)C[C@@H]12)[C@H]3CC[C@]1(C)[C@H]4CC(=O)O[C@H]1c1ccoc1 | – | Activity (Spodoptera littoralis [2]): Active |
